Some results are limits rather than exact numbers.

Compound `O=C(O)c1cccc(S(=O)(=O)Cc2c(O[C@H](Cn3ccnc3)c3ccccc3)ccc3c2CCCC3=O)c1` came in with a melting point of 236 to 238 °C.

The compound `O=C(NNc1ccccc1Cl)c1c(F)cccc1Cl` displayed a melting point of 156 to 158 °C.

Regarding `CN1C(=O)CC(=O)N(c2ccccc2)C1=O`, the melting point was 124 °C.

In turn, `COc1ccc(C(=O)CCC(=O)c2ccc3ccccc3c2)cc1OC` came in with a melting point of 133 °C.

Compound `N#CN1CCC(c2nsc3ccccc23)CC1` displayed a melting point of 118 to 120 °C.

As to `CN(C)C(=O)CC1=C(n2nc(-c3c(-c4ccccc4)nn4ccccc34)ccc2=O)CCCC1`, the melting point lay within 80 to 81 °C.

Take `COc1ccc2c(c1)CCC1C2CCC2(C)C1CCC2N(C=O)CCC(C)C` (stereo not drawn): the melting point fell in the range of 106 to 107 °C.

In turn, `COC(=O)c1ccc(-c2nc(-c3ccc(OC(F)F)cc3)co2)cc1` registered a melting point of 160 to 161 °C.

For the compound `COc1ccc(N2C(=O)C(O)C2c2ccccc2Cl)cc1` (stereo not drawn), the melting point fell in the range of 178 to 180 °C.

In turn, `Fc1ccc(F)c(CN2CCNc3ncc(I)cc32)c1` gave a melting point of 175 °C.

Compound `O=C(O)CN(c1ccccc1)S(=O)(=O)c1ccccc1` returned a melting point of 166 to 167 °C.

`COc1cccc2c1CCC1CCC(=O)N(C)CC21` (stereo not drawn) displayed a melting point of 123 to 124 °C.

Consider `CCOC(=O)C1=C(COCc2nnc(C)s2)NC(C)=C(C(=O)OC)C1c1cccc(Cl)c1Cl` (stereo not drawn), for which the melting point lay in the range of 140 to 144 °C.

In turn, `OCc1cc2sccc2s1` registered a melting point of 91 to 93 °C.

Take `CC(C)(C)OC(=O)NNC(=O)N1CCC(Br)C1=O` (stereo not drawn): the melting point lay within 122 to 123 °C.

Compound `Cc1cc(COc2ccc(S(=O)(=O)NC[C@@H](C(=O)NO)N3CCN(C(=O)OCc4ccccc4)CC3)cc2)c2ccccc2n1` returned a melting point of 162 °C.

With `COc1cc2c(cc1Cl)C(O)Cc1ccccc1S2` (stereo not drawn), the melting point lay within 130 to 132 °C.

`COc1cc2c(cc1Cl)C(Cl)Cc1ccccc1S2` (stereo not drawn) displayed a melting point of 130 to 132 °C.

On to `CON=C(c1ccc(F)cc1)c1ccc2[nH]c(NC(=O)OC)nc2c1`, for which the melting point was 290 to 295 °C.

`O=C(O)COc1cc(Cl)ccc1C(=O)NCc1cc(F)cc(C(F)(F)F)c1` registered a melting point of 160 to 162 °C.

In the case of `CC(=O)Oc1cc(-n2c(=O)cc(C(F)(F)F)n(C)c2=O)c(F)cc1Cl`, the melting point lay in the range of 99 to 101 °C.

Regarding `CC(C)(C)OC(=O)C1CC1c1ccc(-c2ncn(-c3ccc(OC(F)(F)F)cc3)n2)cc1` (stereo not drawn), the melting point was 100 to 101 °C.

`O=C1C=C(OCCCCCCI)c2ccccc2C1=O`: the melting point lay within 85 to 87 °C.

In turn, `CN1CCOc2cc3c(cc21)OCC31C(=O)N(CC2CCCO2)c2ccccc21` (stereo not drawn) registered a melting point of 138 to 140 °C.

For the compound `N#CC(Cl)Cc1ccc(Cl)cc1C(=O)c1ccccc1Cl` (stereo not drawn), the melting point was in the range of 102 to 103 °C.

The compound `CCOC(=O)C(=O)Nc1c(C)oc2ccccc2c1=O` came in with a melting point of 100 °C.

On to `Cc1ccc(-c2c(NS(=O)(=O)c3ccc(C(C)(C)C)cc3)ncnc2OCCOc2ncc(CCc3ccccc3)cn2)cc1`, for which the melting point lay in the range of 158 to 160 °C.

Turning to `Oc1cc2[nH]c3c(O)c(O)cc(Br)c3c2cc1O`, the melting point is > 260 °C.

Take `Cc1ccnc(NC#N)n1`: the melting point is 203 °C.

`O=C(Nc1nc(C(F)(F)F)co1)C1c2ccccc2Oc2ccc(Cl)cc21` (racemic) returned a melting point of 235 °C.

Compound `CN1CCC[C@H]1c1cnc(Cl)c(Cl)c1C(O)(c1ccccc1)c1ccccc1` had a melting point of 170 to 172 °C.

As for `CN(C)CCCCOc1ccc2c(=O)cc(-c3ccccc3)oc2c1`, the melting point lay in the range of 95 to 96 °C.

The compound `CCCC(=O)C(=O)C(CC1CCCCC1)NC(=O)C(CC(C)C)NC(=O)C(Cc1ccccc1)NC(=O)C1CCCC1` (stereo not drawn) gave a melting point of 152 to 161 °C.

As to `Cc1coc(-c2ccccc2)c(-c2ccc(Cl)c(Cl)c2)c1=O`, the melting point is 104 °C.

In turn, `CCCCC(CC)COc1ccc(-c2nc(-c3ccc(OCC(CC)CCCC)cc3)nc(-c3ccc(OCC(CC)CCCC)cc3O)n2)cc1` (stereo not drawn) yielded a melting point of 93 to 95 °C.

The compound `COc1cc2c(-c3ccnc(Cl)c3)c(CO)c(CO)cc2cc1OC(C)C` displayed a melting point of 129 to 131 °C.

`C=Cc1ccccc1OC(C)C(=O)N1CCCC1` (stereo not drawn) came in with a melting point of 85 to 86 °C.

For the compound `COc1ccc2c(c1)CCCC2(CO)NC(=O)c1c(F)cccc1F` (stereo not drawn), the melting point fell in the range of 174 to 175 °C.

`CCc1onc(-c2ccccc2)c1-c1ccccc1` displayed a melting point of 85 to 87 °C.

As to `COC(=O)c1ccc(N)c(C(=O)C(=O)OC(=O)C(=O)c2cc(C(=O)OC)ccc2N)c1`, the melting point fell in the range of 256 to 257 °C.

`Nc1c(Oc2ccc(F)c(C(F)(F)F)c2)ncnc1Oc1ccc(F)c(C(F)(F)F)c1` registered a melting point of 104 to 105 °C.

`Cc1nc2ccccc2n1-c1ccc(I)cc1` yielded a melting point of 136 to 137 °C.

For the compound `O=C(Oc1ccccc1)N1CCC2(CC1)SC(c1ccc(Cl)cc1)c1ccccc12` (stereo not drawn), the melting point was in the range of 211 to 212 °C.

`CCCCc1nc(Cc2ccc(-c3ccccc3C(=O)O)cc2)c(CC(=O)O)c(Cc2ccc(-c3ccccc3C(=O)O)cc2)n1` had a melting point of 160 °C.

Compound `CSc1nnc(Cc2cccnc2)c(=O)[nH]1` came in with a melting point of 215 to 216 °C.

Take `N#Cc1cccc(-n2ccc3ccccc32)c1`: the melting point fell in the range of 33 to 36 °C.

`CN1OCN=C1c1nn(-c2c(Cl)cc(C(F)(F)F)cc2Cl)c(N)c1S(=O)C(F)(F)F` (stereo not drawn): the melting point lay within 165 to 167 °C.

Take `CCCc1c(O)c(C(C)=O)cc(Cl)c1OCCCOc1ccc2ccc(OCC(=O)OC)cc2c1C(C)=O`: the melting point lay within 121 to 124 °C.

`CCC12CCC3C4CCCC=C4CCC3C1CCC2O` (stereo not drawn) gave a melting point of 118 to 120 °C.

In turn, `CNC(=NC#N)NCCS(=O)Cc1nsc(NC(=N)N)n1` (stereo not drawn) displayed a melting point of 185 to 186 °C.

For `CNC(=O)Cc1c(-c2ccccc2)nc2n(C)c3ccc(C)cc3n12`, the melting point lay within 251 to 253 °C.

The compound `CON(O)C(=O)c1ccccc1[N+](=O)[O-]` yielded a melting point of 104 °C.

As for `CCCCc1oc2ccccc2c1C(=O)NCc1ccc2c(-c3ccc(OC)cc3)c(OCC#N)ccc2c1`, the melting point lay in the range of 139 to 142 °C.

Compound `Clc1cccc2c3c([nH]c12)-c1ccccc1C3` registered a melting point of 139 °C.

In the case of `O=C1NC2CCC1NC2=O`, the melting point was 275 to 277 °C.

On to `Cc1cc2c(c(C)c1NC(=O)CC(C)(C)C)C(c1ccc(C(C)C)cc1)CS2` (stereo not drawn), for which the melting point is 151 to 152 °C.

Compound `CCCCCCCCCCCCn1nnc(C(C(=O)O)c2ccccc2)n1` (stereo not drawn) came in with a melting point of 55 to 57 °C.

As to `C(=C\c1ccc(N2CCCC2)cc1)/CC1CCN(Cc2ccccc2)CC1`, the melting point was in the range of 115 to 117 °C.

In the case of `Cc1c(-c2ccccc2)sc(N2C(=O)c3ccccc3C2=O)c1C(=O)c1ccc(Cl)cc1`, the melting point lay in the range of 223 to 225 °C.

On to `CCNC(=O)C(=O)[C@H](Cc1ccccc1)NC(=O)[C@H](CC(C)C)NC(=O)OC1CCOCC1`, for which the melting point was in the range of 140 to 142 °C.

`CCCS(=O)(=O)N(C)CCc1ccncc1`: the melting point fell in the range of 109 to 110 °C.

In turn, `CCCC(=O)Nc1n[nH]c2cc(Cl)c(-c3ccncc3)cc12` displayed a melting point of 260 °C.

In turn, `NCC(c1ccc(OCc2ccccc2)cc1)C1CCCCC1O` (mixture of isomers) returned a melting point of 160 to 161 °C.

As to `N#CCc1nc(C(=O)c2ccc(F)cc2)no1`, the melting point is 78 to 80 °C.

The compound `CC(Oc1ccc(Oc2ccc(C(F)(F)F)cc2)cc1)C(=O)OCC#N` (stereo not drawn) had a melting point of 53 to 56 °C.

In turn, `CN1Sc2sccc2C=C1CN1CCOCC1` registered a melting point of 104 to 106 °C.

As to `Cn1nc(-c2cccs2)n(C)c1=S`, the melting point lay within 128 to 129 °C.

`Cc1cc(C(=O)NC2CC2)ccc1N1CCN(Cc2cnc3c(c2)NC(=O)[C@@H]2CCCN32)CC1` had a melting point of 227 to 234 °C.

In turn, `COc1cc(C(C)(C)C(N)=O)cc2c1OC(C)(C)C2` gave a melting point of 112 to 113 °C.

With `Nc1ccc(C(=O)NCC(=O)O)c(F)c1`, the melting point fell in the range of 190 to 194 °C.

For `COc1ccc(F)cc1Oc1c(Cl)ncnc1NS(=O)(=O)c1ccc(C(F)(F)F)cc1`, the melting point was 185 to 186 °C.

Turning to `COc1ccc(N2CCN(c3ccc(-n4c(C)n[nH]c4=O)cn3)CC2)cc1`, the melting point is 251 to 252 °C.

`Cc1ccc2c(c1)c(=O)c(S(C)=O)cn2C` (stereo not drawn) came in with a melting point of 202 to 205 °C.

As for `CCOC(=O)CSc1ccc([N+](=O)[O-])cc1C1C(C(=O)OC)=C(C)N(C)C(C)=C1C(=O)OC`, the melting point was determined as 118 °C.

`OCc1cc2cc(-c3ccccc3)ccc2[nH]1` yielded a melting point of 115 to 116 °C.

Compound `C[C@@H](c1ccc(-c2ccn(CC(F)(F)F)c(=O)c2)cc1)N1CC[C@](CC(C)(C)O)(c2ccccc2)OC1=O` came in with a melting point of 144 to 146 °C.

Consider `COC(=O)c1ccc(-c2ccc3nc(OC)ccc3c2)cc1`, for which the melting point was 158 to 161 °C.

In the case of `CCC(CC)(OC)c1ccc(Cl)c2nc3n(c12)CCCN3c1ccc(Cl)cc1C(F)(F)F`, the melting point lay in the range of 172 to 173 °C.

With `COc1cc(C)c(NS(C)(=O)=O)cc1C(=O)NCC(Cl)CCCCl` (stereo not drawn), the melting point is 132 °C.

In turn, `Cc1ccc(C(=O)O)c(OCc2ccc(OCCc3nc(-c4ccccc4)oc3C)cc2)c1` showed a melting point of 116 to 118 °C.

Take `COc1ccc(-n2c(CC(=O)O)c(C(=O)O)c3cc(Oc4cccc(C(F)(F)F)c4)ccc32)cc1`: the melting point came out at 210 °C.

In turn, `O=C1c2ccc(Cl)cc2C(=O)N1CC(=O)N1c2ccccc2N(Cc2ccccc2)C(=O)[C@H]2CCC[C@H]21` (relative stereo) gave a melting point of 237 to 238 °C.

On to `FC(F)(F)c1cccc(CSc2nnc(-c3ccc4ncccc4c3)o2)c1`, for which the melting point is 158 to 159 °C.

Compound `C=C(C)C(=O)NC1=CC(C(=O)O)C(O)(C(C)=O)C=C1` (stereo not drawn) yielded a melting point of 192 °C.

Compound `CC(C)CC(=O)c1cc(-c2ccccc2)no1` gave a melting point of 62 to 64 °C.

With `Nc1cccn2c(Cl)cnc12`, the melting point is 126 to 127 °C.

As to `CCCCCCCCCCCCc1ccc(S(=O)(=O)Nc2nnc(CCCCCN(C)c3ccc([N+](=O)[O-])c4nonc34)s2)cc1`, the melting point fell in the range of 102 to 104 °C.

Take `CCCC1(CCC)C(=O)N(C(C)(C)C)CC(C)(C)N1OC(C)(C)C#N`: the melting point was in the range of 85 to 87 °C.

The values above are taken from a melting point compilation (Tetko et al.; mined from patent text by program, amines drawn as free bases though some values may be those of a salt).
